Laboratory results: ChEMBL document CHEMBL4765279, “Discovery of a novel series of imidazo[1',2':1,6]pyrido[2,3-d]pyrimidin derivatives as potent cyclin-dependent kinase 4/6 inhibitors” (Eur J Med Chem, 2020)
Active and inactive are the calls of the source. No cut-off for these calls is given here.

What was measured:
[1] = Oral bioavailability in BALB/c mouse at 10 mg/kg by LC-MS/MS analysis; format: ADME, organism-based; conditions: in vivo
[2] = test system: MDA-MB-468; assay: Antiproliferative activity against human MDA-MB-468 cells assessed as cell growth inhibition measured after 4 to 6 days by celltiter-glo luminescent cell viability assay; format: functional, cell-based
[3] = biological target: Cytochrome P450 2C9 (Homo sapiens, UniProt P11712); assay: Time-dependent inhibition of CYP2C9 in human liver microsomes at 10 uM in presence of NADPH by LC-MS/MS analysis; format: ADME
[4] = biological target: CYP2C19 (Homo sapiens, UniProt P33261); assay: Inhibition of CYP2C19 in human liver microsomes at 10 uM measured after 20 mins in presence of NADPH by LC-MS/MS analysis relative to control; format: ADME
[5] = Volume of distribution at steady state in Sprague-Dawley rat at 3 mg/kg, iv by LC-MS/MS analysis; format: ADME, organism-based; conditions: in vivo, read-out: Vdss
[6] = Intrinsic clearance in human liver microsomes at 1 uM preincubated for 10 mins followed by NADPH addition and measured after 1 hr by LC-MS/MS analysis; format: ADME, Microsome; conditions: time 70 min, read-out: CLH
[7] = biological target: CYP2D6 (Homo sapiens, UniProt P10635); assay: Inhibition of CYP2D6 in human liver microsomes at 10 uM measured after 20 mins in presence of NADPH by LC-MS/MS analysis relative to control; format: ADME
[8] = biological target: CDK6/Cyclin D3 (Homo sapiens, UniProt Q00534); assay: Inhibition of human full-length N-terminal GST tagged CDK6 (1 to 326 residues)/GST-tagged cyclinD3 (1 to 292 residues) expressed in baculovirus expression system using ULight-elF4E-binding protein 1 peptide as substrate measured after 30 mins by LANCE assay
[9] = Intrinsic clearance in rat liver microsomes at 1 uM preincubated for 10 mins followed by NADPH addition and measured after 1 hr by LC-MS/MS analysis; format: ADME, Microsome; conditions: time 70 min, read-out: CLH
[10] = biological target: T1, Cytochrome P450 1A2 (Homo sapiens, UniProt P05177); assay: Time-dependent inhibition of CYP1A2 in human liver microsomes at 10 uM in presence of NADPH by LC-MS/MS analysis; format: ADME
T1 sequence (P05177 whole entry): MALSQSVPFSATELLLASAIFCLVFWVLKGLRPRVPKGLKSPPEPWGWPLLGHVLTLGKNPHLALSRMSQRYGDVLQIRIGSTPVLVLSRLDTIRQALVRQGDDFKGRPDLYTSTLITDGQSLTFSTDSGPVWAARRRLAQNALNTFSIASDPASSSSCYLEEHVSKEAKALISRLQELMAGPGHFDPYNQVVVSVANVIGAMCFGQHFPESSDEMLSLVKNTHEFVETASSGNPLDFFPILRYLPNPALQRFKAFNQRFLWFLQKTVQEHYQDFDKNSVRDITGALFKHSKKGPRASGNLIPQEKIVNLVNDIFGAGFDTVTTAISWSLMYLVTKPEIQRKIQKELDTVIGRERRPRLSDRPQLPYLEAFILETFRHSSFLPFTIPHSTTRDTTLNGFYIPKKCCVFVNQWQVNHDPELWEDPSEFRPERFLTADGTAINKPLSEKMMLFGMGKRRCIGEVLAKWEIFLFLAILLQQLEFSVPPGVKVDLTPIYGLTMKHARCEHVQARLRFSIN

[11] = biological target: T2, CYP1A2 (Homo sapiens, UniProt P05177); assay: Inhibition of CYP1A2 in human liver microsomes at 10 uM measured after 20 mins in presence of NADPH by LC-MS/MS analysis relative to control; format: ADME
T2 sequence (P05177 whole entry): T1 sequence (P05177 whole entry)

[12] = biological target: CDK9/cyclin T1 (Homo sapiens, UniProt P50750)
Description: Inhibition of CDK9/cyclin T1 (unknown origin)

[13] = test system: COLO 205; assay: Cell cycle arrest in human COLO 205 cells assessed as accumulation at G0/G1 phase at 200 nM measured after 24 hrs by propidium iodide staining based flow cytometry relative to control; format: functional
[14] = biological target: CDK2/Cyclin A2 (Homo sapiens, UniProt P24941)
Description: Inhibition of CDK2/cyclin A2 (unknown origin)

[15] = biological target: CYP2C9 (Homo sapiens, UniProt P11712); assay: Inhibition of CYP2C9 in human liver microsomes at 10 uM measured after 20 mins in presence of NADPH by LC-MS/MS analysis relative to control; format: ADME
[16] = AUC (0 to t) in BALB/c mouse at 10 mg/kg, po by LC-MS/MS analysis; format: ADME, organism-based; design: dose 10 mg/kg; conditions: in vivo
[17] = test system: COLO 205; assay: Antitumor activity against human COLO 205 cells xenografted in BALB/c mouse assessed as tumor growth at 3 mg/kg, po q3d for 11 days measured post last dose relative to control; format: functional; conditions: time 11 day
[18] = AUC (0 to t) in Sprague-Dawley rat at 3 mg/kg, iv by LC-MS/MS analysis; format: ADME, organism-based; design: dose 3 mg/kg; conditions: in vivo
[19] = biological target: CDK4/Cyclin D3 (Homo sapiens, UniProt P11802); assay: Inhibition of recombinant human full-length N-terminal GST-fused CDK4 (1 to 303 residues)/GST-tagged CyclinD3 (1 to 292 residues) expressed in baculovirus expression system using ULight-elF4E-binding protein 1 peptide as substrate measured after 30 mins by LANCE assay
[20] = AUC (0 to t) in BALB/c mouse at 3 mg/kg, iv by LC-MS/MS analysis; format: ADME, organism-based; design: dose 3 mg/kg; conditions: in vivo
[21] = biological target: Cytochrome P450 2C19 (Homo sapiens, UniProt P33261); assay: Time-dependent inhibition of CYP2C19 in human liver microsomes at 10 uM in presence of NADPH by LC-MS/MS analysis; format: ADME
[22] = test system: U-87 MG; assay: Antitumor activity against human U-87 MG cells xenografted in BALB/c mouse assessed as tumor growth inhibition at 10 mg/kg, po qd for 16 days relative to control; format: functional, U-87MG ATCC; conditions: 384 h, time 16 day, read-out: TGI
[23] = test system: COLO 205; assay: Antitumor activity against human COLO 205 cells xenografted in BALB/c mouse assessed as reduction in tumor volume at 3 mg/kg, po qd for 11 days measured post last dose by caliper method; format: functional, organism-based; conditions: time 11.0 day
[24] = Oral bioavailability in Sprague-Dawley rat at 6 mg/kg by LC-MS/MS analysis; format: ADME, organism-based; conditions: in vivo
[25] = biological target: Cytochrome P450 3A4 (Homo sapiens, UniProt P08684); assay: Time-dependent inhibition of CYP3A4 in human liver microsomes at 10 uM in presence of NADPH by LC-MS/MS analysis; format: ADME
[26] = Toxicity in human COLO 205 cells xenografted BALB/c mouse assessed as body weight loss at 3 mg/kg, po qd for 11 days relative to control; format: organism-based; conditions: in vivo, time 11 day
[27] = test system: U-87 MG; assay: Antitumor activity against human U-87 MG cells xenografted in BALB/c mouse assessed as tumor growth at 10 mg/kg, po qd for 16 days relative to control; format: functional, U-87MG ATCC; conditions: time 16 day
[28] = biological target: Cyclin-dependent kinase 1/cyclin B1 (Homo sapiens, UniProt P06493)
Description: Inhibition of CDK1/cyclin B (unknown origin)

[29] = Cmax in Sprague-Dawley rat at 6 mg/kg, po by LC-MS/MS analysis; format: ADME, organism-based; design: route oral, dose 6 mg/kg; conditions: in vivo

Chain of Cytochrome P450 2C19 (P33261 whole entry): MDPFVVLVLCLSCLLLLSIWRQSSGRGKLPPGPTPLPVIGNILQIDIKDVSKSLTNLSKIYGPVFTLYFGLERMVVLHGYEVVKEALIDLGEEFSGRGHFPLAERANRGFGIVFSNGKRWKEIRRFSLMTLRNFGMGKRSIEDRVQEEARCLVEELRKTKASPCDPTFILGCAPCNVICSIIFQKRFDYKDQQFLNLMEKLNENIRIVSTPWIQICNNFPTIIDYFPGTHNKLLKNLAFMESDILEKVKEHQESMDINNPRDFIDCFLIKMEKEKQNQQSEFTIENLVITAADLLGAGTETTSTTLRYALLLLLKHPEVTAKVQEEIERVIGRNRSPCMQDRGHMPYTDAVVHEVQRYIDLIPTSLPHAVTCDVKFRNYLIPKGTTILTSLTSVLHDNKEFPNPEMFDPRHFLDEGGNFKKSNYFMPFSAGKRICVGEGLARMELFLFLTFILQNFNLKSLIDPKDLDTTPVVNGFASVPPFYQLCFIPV
Chain of CYP2C19 (P33261 whole entry): as above
Chain of CDK4/Cyclin D3 (P11802 whole entry, the tested form may be a part): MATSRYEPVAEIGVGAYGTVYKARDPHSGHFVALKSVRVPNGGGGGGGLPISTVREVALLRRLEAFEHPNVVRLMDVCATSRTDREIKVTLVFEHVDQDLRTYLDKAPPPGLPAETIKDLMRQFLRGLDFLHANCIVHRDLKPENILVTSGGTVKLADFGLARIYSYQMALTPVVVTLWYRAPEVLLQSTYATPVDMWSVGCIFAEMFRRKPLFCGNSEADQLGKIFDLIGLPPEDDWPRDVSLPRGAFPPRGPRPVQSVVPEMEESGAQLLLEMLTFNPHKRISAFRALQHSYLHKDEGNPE
Chain of CDK4/Cyclin D3 (P30281 whole entry, further chain, the tested form may be a part): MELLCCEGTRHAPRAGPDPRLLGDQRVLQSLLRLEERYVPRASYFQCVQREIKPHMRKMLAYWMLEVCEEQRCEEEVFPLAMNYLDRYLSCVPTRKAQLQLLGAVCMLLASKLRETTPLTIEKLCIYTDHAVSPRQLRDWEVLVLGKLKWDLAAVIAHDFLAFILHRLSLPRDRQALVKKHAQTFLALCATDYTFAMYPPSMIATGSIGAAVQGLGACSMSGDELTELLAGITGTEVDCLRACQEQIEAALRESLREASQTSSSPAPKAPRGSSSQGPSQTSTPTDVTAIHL
Chain of CYP2D6 (P10635 whole entry, the tested form may be a part): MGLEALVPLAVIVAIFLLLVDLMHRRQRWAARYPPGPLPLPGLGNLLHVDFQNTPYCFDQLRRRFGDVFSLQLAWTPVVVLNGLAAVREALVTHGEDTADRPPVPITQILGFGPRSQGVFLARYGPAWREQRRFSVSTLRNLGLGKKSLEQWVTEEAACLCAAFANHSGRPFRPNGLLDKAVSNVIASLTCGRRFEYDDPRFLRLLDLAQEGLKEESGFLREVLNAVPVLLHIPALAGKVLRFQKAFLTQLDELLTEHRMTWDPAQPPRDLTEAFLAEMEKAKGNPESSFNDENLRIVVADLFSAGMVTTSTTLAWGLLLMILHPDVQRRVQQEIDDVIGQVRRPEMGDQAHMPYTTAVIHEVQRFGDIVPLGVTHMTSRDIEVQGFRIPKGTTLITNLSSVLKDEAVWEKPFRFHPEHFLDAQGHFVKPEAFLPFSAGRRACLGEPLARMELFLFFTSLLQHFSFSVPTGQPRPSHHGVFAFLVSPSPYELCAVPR
Chain of Cyclin-dependent kinase 1/cyclin B1 (P06493 whole entry): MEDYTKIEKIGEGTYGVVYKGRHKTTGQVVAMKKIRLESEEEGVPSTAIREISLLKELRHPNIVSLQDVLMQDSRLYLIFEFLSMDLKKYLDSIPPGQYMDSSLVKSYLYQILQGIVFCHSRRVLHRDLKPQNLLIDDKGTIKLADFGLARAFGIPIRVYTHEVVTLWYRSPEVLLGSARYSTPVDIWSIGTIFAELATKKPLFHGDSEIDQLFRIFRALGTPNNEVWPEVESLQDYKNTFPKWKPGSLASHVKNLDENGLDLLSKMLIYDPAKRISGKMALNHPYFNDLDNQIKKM
Chain of Cyclin-dependent kinase 1/cyclin B1 (P14635 whole entry, further chain): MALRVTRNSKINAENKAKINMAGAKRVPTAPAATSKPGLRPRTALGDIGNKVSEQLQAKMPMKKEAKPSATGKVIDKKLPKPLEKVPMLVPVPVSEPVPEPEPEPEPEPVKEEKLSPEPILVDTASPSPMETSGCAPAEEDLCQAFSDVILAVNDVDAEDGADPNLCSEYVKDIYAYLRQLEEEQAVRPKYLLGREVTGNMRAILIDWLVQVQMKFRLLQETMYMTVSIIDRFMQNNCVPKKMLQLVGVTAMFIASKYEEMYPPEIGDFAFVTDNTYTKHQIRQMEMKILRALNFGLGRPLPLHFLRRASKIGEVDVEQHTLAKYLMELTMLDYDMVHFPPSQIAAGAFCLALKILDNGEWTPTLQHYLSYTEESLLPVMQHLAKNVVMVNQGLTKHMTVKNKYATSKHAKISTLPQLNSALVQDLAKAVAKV
Chain of CDK9/cyclin T1 (O60563 whole entry): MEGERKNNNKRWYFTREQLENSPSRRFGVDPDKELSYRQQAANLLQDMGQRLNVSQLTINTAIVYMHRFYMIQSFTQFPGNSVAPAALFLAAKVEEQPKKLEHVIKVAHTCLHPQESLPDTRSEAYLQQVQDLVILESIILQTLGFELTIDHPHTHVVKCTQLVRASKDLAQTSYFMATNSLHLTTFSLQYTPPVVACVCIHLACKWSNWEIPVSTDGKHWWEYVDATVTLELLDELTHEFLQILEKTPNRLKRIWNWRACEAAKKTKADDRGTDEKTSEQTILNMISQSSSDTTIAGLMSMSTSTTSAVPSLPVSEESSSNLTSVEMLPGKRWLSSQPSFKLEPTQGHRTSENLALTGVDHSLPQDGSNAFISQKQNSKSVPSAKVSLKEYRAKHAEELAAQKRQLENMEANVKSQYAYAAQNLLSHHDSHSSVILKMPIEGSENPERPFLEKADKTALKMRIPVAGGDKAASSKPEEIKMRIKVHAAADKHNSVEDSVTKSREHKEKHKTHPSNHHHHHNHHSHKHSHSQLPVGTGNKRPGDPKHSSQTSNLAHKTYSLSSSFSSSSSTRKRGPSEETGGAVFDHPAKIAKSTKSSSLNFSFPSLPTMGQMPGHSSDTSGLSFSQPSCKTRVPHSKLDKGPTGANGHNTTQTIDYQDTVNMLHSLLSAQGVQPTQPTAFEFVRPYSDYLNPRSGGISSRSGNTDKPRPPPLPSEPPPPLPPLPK
Chain of CDK9/cyclin T1 (P50750 whole entry): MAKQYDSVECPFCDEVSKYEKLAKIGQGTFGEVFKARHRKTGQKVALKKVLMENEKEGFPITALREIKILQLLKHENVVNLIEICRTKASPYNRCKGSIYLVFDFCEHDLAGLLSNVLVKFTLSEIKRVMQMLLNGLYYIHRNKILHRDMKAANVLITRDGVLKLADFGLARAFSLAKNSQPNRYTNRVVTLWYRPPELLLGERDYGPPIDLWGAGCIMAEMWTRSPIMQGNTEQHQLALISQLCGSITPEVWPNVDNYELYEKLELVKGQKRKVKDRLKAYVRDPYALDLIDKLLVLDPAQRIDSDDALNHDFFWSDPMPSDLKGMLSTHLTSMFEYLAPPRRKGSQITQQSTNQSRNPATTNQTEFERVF
Chain of CDK6/Cyclin D3 (Q00534 whole entry, looked up, the tested form may be a part): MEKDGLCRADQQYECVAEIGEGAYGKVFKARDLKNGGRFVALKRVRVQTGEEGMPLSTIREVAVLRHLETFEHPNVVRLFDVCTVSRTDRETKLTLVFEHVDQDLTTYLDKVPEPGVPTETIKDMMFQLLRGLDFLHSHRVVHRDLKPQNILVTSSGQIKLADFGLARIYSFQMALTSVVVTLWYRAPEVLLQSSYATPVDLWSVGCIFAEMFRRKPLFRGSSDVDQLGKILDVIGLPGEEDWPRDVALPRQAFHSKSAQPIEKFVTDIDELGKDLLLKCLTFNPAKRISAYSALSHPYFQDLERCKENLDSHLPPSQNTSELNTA
Chain of Cytochrome P450 3A4 (P08684 whole entry): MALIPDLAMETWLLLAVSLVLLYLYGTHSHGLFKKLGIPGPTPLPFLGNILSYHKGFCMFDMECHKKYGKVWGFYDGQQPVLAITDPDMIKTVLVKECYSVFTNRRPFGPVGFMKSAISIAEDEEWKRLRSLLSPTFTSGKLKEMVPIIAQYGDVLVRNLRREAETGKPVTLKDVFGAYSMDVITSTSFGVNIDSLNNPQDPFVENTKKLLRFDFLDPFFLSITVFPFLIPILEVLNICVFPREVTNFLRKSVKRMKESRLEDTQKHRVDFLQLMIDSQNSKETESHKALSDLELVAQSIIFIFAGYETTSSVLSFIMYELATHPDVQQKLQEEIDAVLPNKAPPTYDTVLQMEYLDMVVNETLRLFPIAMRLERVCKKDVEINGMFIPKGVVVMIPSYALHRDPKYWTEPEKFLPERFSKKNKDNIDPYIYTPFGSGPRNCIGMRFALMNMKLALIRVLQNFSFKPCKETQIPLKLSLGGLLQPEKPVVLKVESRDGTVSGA

CC(=O)c1c(C)c2cnc(Nc3ccc(N4CCNCC4)cc3)nc2n2cc(C(C)C)nc12
bioavailability [1]: 20.5%
IC50 [2]: 874 nM
TDI [3]: Not Active
inhibition at […], 10 µM [4]: 21%
Vd [5]: 35.2 L/kg
microsomal CLint at 1 µM [6]: 6 µL/min/mg
inhibition at […], 10 µM [7]: 14%
IC50 [8]: 2 nM
microsomal CLint at 1 µM [9]: 54 µL/min/mg
TDI [10]: Not Active
inhibition at […], 10 µM [11]: 17%
IC50 [12]: 23.4 nM
Activity [13]: 94.2%
IC50 [14]: 18.9 nM
inhibition at […], 10 µM [15]: 11%
AUC(0-t) [16]: 318 ng·h/mL
T/C [17]: 52%
AUCt [18]: 861 ng·h/mL
IC50 [19]: 0.8 nM
AUCt [20]: 472 ng·h/mL
TDI [21]: Not Active
inhibition in vivo at 10 mg/kg [22]: 54%
Activity [23]: Active
bioavailability [24]: 65.2%
TDI [25]: Not Active
Activity [26]: < 20%
T/C [27]: 53%
IC50 [28]: 309 nM
Cmax [29]: 110 ng/mL
